Six compounds from ChEMBL document CHEMBL5370588, “Unraveling the unexpected aggregation behavior of Pyrazole-Based compounds Targeting Mycobacterium tuberculosis UDP-Galactopyranose mutase” (Bioorg Med Chem, 2023) can be followed below.

Calls of active or inactive are those of the source. No cut-off for these calls is given here.

In data set [1] the target is T1, UDP-galactopyranose mutase (Mycobacterium tuberculosis, UniProt P9WIQ1). Description: Inhibition of His6-tagged Mycobacterium tuberculosis reduced UDP-galactopyranose mutase expressed in Escherichia coli BL21 assessed as reduction in UDPGalf production using UDPGalp as substrate in presence of TritonX100 by HPLC analysis.
Data set [2] deals with UDP-galactopyranose mutase (Mycobacterium tuberculosis) (UniProt P9WIQ1). Description: Binding affinity to His6-tagged Mycobacterium tuberculosis UDP-galactopyranose mutase expressed in Escherichia coli BL21 assessed as change melting temperature at 20 uM in presence of Sypro Orange by thermal shift assay.
Data set [3] has the same target. Description: Binding affinity to His6-tagged Mycobacterium tuberculosis UDP-galactopyranose mutase expressed in Escherichia coli BL21 assessed as increase in melting temperature using UDP-Galp as substrate at 600 to 800 uM in presence of Sypro Orange by thermal shift assay. The settings on record: dose 600-800 µM.
Data set [4] has the same target. Briefly: Binding affinity to His6-tagged Mycobacterium tuberculosis reduced UDP-galactopyranose mutase expressed in Escherichia coli BL21 assessed as increase in corrected fluorescence intensity at 100 to 1000 uM in presence of ANS by fluorescence-based binding assay. The settings on record: dose 100-1000 µM.
Data set [5] in a line: Aggregation property of compound in PBS at pH 7 assessed as critical aggregation concentration by DLS assay. Format: physicochemical. The settings on record: buffer.
The target of data set [6] is UDP-galactopyranose mutase (Mycobacterium tuberculosis) (UniProt P9WIQ1). Briefly: Binding affinity to His6-tagged Mycobacterium tuberculosis UDP-galactopyranose mutase expressed in Escherichia coli BL21 assessed as decrease in melting temperature at 800 to 1000 uM in presence of Sypro Orange by thermal shift assay. The settings on record: dose 800-1000 µM.
In data set [7] the target is T1, UDP-galactopyranose mutase. Description: Inhibition of His6-tagged Mycobacterium tuberculosis reduced UDP-galactopyranose mutase expressed in Escherichia coli BL21 assessed as reduction in UDPGalf production using UDPGalp as substrate by HPLC analysis.
Data set [8] deals with UDP-galactopyranose mutase (Mycobacterium tuberculosis) (UniProt P9WIQ1). Description: Binding affinity to His6-tagged Mycobacterium tuberculosis reduced UDP-galactopyranose mutase expressed in Escherichia coli BL21 assessed as increase in corrected fluorescence intensity using UDP-Galp as substrate at 100 to 1000 uM in presence of ANS by fluorescence-based binding assay. The settings on record: dose 100-1000 µM.

A short description of data set [9]: Aggregation property of compound in PBS at pH 7 at 80 uM by DLS assay. Format: physicochemical. The settings on record: buffer, pH 7, 80 µM.
The target in data set [10] is T1, UDP-galactopyranose mutase. Briefly: Inhibition of Mycobacterium tuberculosis UDP-galactopyranose mutase expressed in Escherichia coli BL21 using […] as substrate by Dixon plot analysis.
In data set [11] the target is T1, UDP-galactopyranose mutase. Description: Inhibition of Mycobacterium tuberculosis UDP-galactopyranose mutase expressed in Escherichia coli BL21 using […] as substrate by cornish-bowden plot analysis.
Data set [12] has as its target UDP-galactopyranose mutase (Mycobacterium tuberculosis) (UniProt P9WIQ1). Description: Binding affinity to His6-tagged Mycobacterium tuberculosis UDP-galactopyranose mutase expressed in Escherichia coli BL21 assessed as increase in melting temperature using UDP-Galp as substrate at < 100 uM in presence of Sypro Orange by thermal shift assay.
The target is the same in data set [13]. Briefly: Binding affinity to His6-tagged Mycobacterium tuberculosis UDP-galactopyranose mutase expressed in Escherichia coli BL21 assessed as change melting temperature up to 600 uM in presence of Sypro Orange by thermal shift assay.
Data set [14] has the same target. Description: Binding affinity to His6-tagged Mycobacterium tuberculosis UDP-galactopyranose mutase expressed in Escherichia coli BL21 assessed as decrease in melting temperature using UDP-Galp as substrate at 100 to 400 uM in presence of Sypro Orange by thermal shift assay. The settings on record: dose 100-400 µM.
Data set [15] addresses T1, UDP-galactopyranose mutase. Description: Inhibition of His6-tagged Mycobacterium tuberculosis UDP-galactopyranose mutase expressed in Escherichia coli BL21 using […] as substrate by Dixon plot analysis.

UDP-galactopyranose mutase (Mycobacterium tuberculosis), sequence (P9WIQ1 whole entry, looked up): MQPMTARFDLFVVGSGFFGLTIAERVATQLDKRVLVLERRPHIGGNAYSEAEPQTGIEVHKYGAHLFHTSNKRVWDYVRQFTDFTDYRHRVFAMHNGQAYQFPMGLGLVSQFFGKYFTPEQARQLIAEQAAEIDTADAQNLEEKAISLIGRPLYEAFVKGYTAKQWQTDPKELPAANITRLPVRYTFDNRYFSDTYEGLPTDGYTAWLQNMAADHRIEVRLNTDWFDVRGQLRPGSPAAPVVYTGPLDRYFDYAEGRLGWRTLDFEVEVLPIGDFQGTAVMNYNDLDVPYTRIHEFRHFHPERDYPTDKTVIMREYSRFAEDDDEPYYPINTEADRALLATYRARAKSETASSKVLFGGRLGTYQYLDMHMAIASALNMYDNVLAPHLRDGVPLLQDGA
T1 sequence (P9WIQ1 whole entry): as the sequence (P9WIQ1 whole entry, looked up) above

With `Cc1[nH]n(-c2ccc(Cl)cc2)c(=O)c1C(=O)c1ccc(Cl)cc1`, the values for the half-inhibitory concentration (IC50) in data set [1] and in data set [7] were 590 µM and 880 µM, respectively. The shift in melting temperature (ΔTm) – broadly, the change in melting temperature against a reference sample – in data set [2] stood at 5 °C. For the same compound, the result in data set [3], in data set [4], in [6], in data set [8], in data set [12] and in [14] was Active. In data set [5], the CAC was above 50 µM. Further, the result in data set [9] was Active. The inhibition constant (Ki) (commonly the equilibrium dissociation constant of an inhibitor or competing ligand from its target) is around 135 µM in data set [10] and around 400 µM in data set [11]. The outcome in data set [13] was inactive.
For `O=C(CCc1cn(-c2ccc(Cl)cc2)nn1)Oc1ccc(Cl)cc1`, the half-maximal inhibitory concentration (IC50) (in general, the concentration needed to halve the response being measured) in data set [1] was 1260 µM; in data set [7] it was 530 µM.
With `Cc1cc(OC(=O)c2ccc(S(N)(=O)=O)cc2)n(-c2ccc(Cl)cc2)n1`, the 50% inhibitory concentration (IC50) came out at 1130 µM in data set [1] and 500 µM in [7]. The inhibitory constant (Ki) in data set [15] is around 51 µM.
Consider `OC(c1ccc(Cl)cc1)c1cn(-c2ccc(Cl)cc2)nn1` (stereo not given), for which the IC50 stood at 2710 µM in data set [1] and 150 µM in data set [7].
On to `Cc1nn(-c2ccc(Cl)cc2)c(O)c1C(=O)c1ccccc1`, for which the half-maximal inhibitory concentration (IC50) in [1] came to 1510 µM; in [7] it was 610 µM.
Taken in the same sequence, the figures for `Cc1nn(-c2ccc(Cl)cc2)c(O)c1S(=O)(=O)c1ccc(Cl)cc1` were 4340 µM and 225 µM.
